{"source": "patent US9128100B2", "about": "“Non-invasive diagnostic method for the evaluation of intestinal lactase deficiency (hypolactasia)” (Venter Pharma, S.L., priority 2012, dated 2015)", "target": "T1, intestinal lactase (Homo sapiens, UniProt P09848)", "T1 construct": "after its oral administration it is hydrolysed by the intestinal mucosa enzyme; from tissue; host or cells: small-intestinal mucosa (enterocyte brush border) of living human volunteers and patients, in vivo", "T1 sequence (P09848 869-1927)": "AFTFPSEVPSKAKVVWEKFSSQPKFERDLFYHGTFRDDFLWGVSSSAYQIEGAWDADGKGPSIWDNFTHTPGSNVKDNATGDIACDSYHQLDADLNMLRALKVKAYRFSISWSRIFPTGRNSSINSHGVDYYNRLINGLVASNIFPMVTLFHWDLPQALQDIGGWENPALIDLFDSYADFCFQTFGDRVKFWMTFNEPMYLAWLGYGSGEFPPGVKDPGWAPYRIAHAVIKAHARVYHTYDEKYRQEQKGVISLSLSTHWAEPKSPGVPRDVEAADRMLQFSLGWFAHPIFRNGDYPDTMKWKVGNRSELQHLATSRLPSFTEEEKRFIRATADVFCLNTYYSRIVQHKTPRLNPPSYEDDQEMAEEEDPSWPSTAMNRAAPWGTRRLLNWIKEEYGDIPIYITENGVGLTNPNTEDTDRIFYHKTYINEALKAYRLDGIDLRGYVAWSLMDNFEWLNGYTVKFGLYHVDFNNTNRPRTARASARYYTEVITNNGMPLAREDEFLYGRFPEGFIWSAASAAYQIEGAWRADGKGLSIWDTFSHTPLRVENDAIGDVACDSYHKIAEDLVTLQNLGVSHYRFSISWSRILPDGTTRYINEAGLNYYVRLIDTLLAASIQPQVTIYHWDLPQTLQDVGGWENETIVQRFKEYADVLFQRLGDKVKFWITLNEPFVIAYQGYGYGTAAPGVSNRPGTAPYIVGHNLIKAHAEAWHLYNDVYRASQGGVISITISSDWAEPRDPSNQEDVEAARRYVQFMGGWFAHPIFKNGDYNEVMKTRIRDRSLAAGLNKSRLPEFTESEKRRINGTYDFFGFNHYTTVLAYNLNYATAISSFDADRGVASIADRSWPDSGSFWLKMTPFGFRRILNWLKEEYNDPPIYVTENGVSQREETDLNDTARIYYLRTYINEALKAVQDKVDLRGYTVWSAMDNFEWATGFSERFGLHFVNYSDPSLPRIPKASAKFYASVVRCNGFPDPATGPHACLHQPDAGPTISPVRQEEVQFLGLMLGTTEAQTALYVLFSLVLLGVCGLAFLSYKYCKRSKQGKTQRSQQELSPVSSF", "test": "4-GX test in 5-hour urine, patients with symptoms suggestive of lactose intolerance", "assay_type": "in vivo", "description": "The diagnostic tests to which these patients were subjected were: • Intestinal biopsy: determining intestinal lactase activity therein. • Hydrogen breath test after the oral administration to patients of 50 g of lactose. While this test was being carried out, several capillary-blood glucose test (Glycemia tests) were carried out, calculating the highest increase observed in the blood glucose concentration compared to basal glucose level before starting the test. • 4-GX test in total urine at 0-4 and 0-5 hours, which was orally administered to patients 0.5 g of this product (or 0.45 g in a 4-GX sample including 10 wt % water), collecting the total urine accumulated over 0-4 h and 0-5 h following the administration of 4-GX and determining the amount of excreted xylose in both volumes of urine. • 4-GX test in blood which was orally administered to patients 3 g of this product (or 2.7 g in a 4-GX sample including 10 wt % water) to determine the concentration of plasma xylose in a blood sample 90 minutes after ingestion of the product. The concentration obtained was compared to a basal blood sample extracted before ingestion of 4-GX.\nThe 4-GX was orally administered in a single dose dissolved in 100 ml of water.\nFrom here on, the optimum dose of 0.5 g of 4-GX (or 0.45 g in a 4-GX sample including 10 wt % water) was used in the 4-GX urine test for the diagnosis of intestinal lactase deficiency by the non-invasive method described in the present invention. This dose was dissolved in 100 ml water, and following the test protocol, 2 samples of urine excreted during the 5 hours following the administration of the drug were taken, in two interval groups: at 4 hours following administration of 4-GX and at 5 hours following administration of 4-GX.\nFrom the data obtained from the various urine tests for intestinal lactase deficiency following oral ingestion of 4-GX described in the present invention, a descriptive statistical analysis was performed of the amount of xylose excreted in the urine up to 4 hours and up to 5 hours following said administration. The same was done with the blodd test for intestinal lactase activity following oral ingestion of 4-GX, where descriptive statistical analysis was performed on the amount of xylose present in the plasma of subjects at 90 minutes following administration of 4-GX. The net increase in the plasma xylose concentration compared to basal values was also calculated.\nTo obtain the statistical parameters of lactase determination using the various 4-GX tests described in the present invention and later to compare them with the results obtained from the intestinal biopsy test, hydrogen in exhaled air test and capillary-blood glucose test, the normal limits of the measurement of the total amount of xylose excreted in 4-hour and 5-hour urine and the concentration of blood xylose after 90 minutes following ingestion of 4-GX described in Table 5 were used. The normal limits for the other tests were those used in common clinical practice for the diagnosis of lactose intolerance (Arola, H. (1994) Diagnosis of hypolactasia and lactose malabsorption. Scand. J. Gastroenterol. […] (Suppl), 26-35), which are:\nFor the measurement of lactase by intestinal biopsy, the lower normal limit is established at 10 units/g protein, with values less than this being considered positive.", "key": {"[1]": {"conditions": "0.5 g 4-GX, 0-5 h urine, cut-off 37.87 mg, 205 patients"}, "[2]": {"conditions": "0.5 g 4-GX, 5-hour urine, lactase in intestinal biopsy as gold standard"}, "[3]": {"conditions": "5-hour urine, after correcting biopsy diagnosis"}, "[4]": {"conditions": "5-hour urine, after correction of the biopsy diagnostic result (five discrepancies)"}, "[5]": {"conditions": "5-hour urine, after correction of the biopsy diagnostic result (four discrepancies)"}, "[6]": {"conditions": "5-hour urine, biopsy as gold standard"}, "[7]": {"conditions": "5-hour urine, final criteria of Table 9"}}, "note": "Values joined by “and” are separate entries in the source; they are usually repeats but may differ in a detail not shown here. Equal values may be shown once."}
{"smiles": "O=C[C@H](O)[C@@H](O)[C@@H](CO)O[C@@H]1O[C@H](CO)[C@H](O)[C@H](O)[C@H]1O", "note": "[4-GX, 4-O-β-galactopyranosyl-D-xylose]", "values": [{"measurement": "No. Negative", "setting": "[1]", "value": 96}, {"measurement": "No. Positive (patients presenting intestinal lactase deficiency)", "setting": "[1]", "value": 109}, {"measurement": "Percentage of patients negative", "setting": "[1]", "value": 47, "unit": "%"}, {"measurement": "Percentage of patients positive", "setting": "[1]", "value": "53.2% and 53%"}, {"measurement": "Negative predictive value", "setting": "[2]", "value": "92.7% and 92.71%"}, {"measurement": "Positive predictive value", "setting": "[2]", "value": "92.7% and 92.66%"}, {"measurement": "Sensitivity", "setting": "[2]", "value": "93.5% and 93.52%"}, {"measurement": "Specificity", "setting": "[2]", "value": "91.8% and 91.75%"}, {"measurement": "sensitivity calculated using the ROC curves", "setting": "5-hour urine samples", "value": 93.5, "unit": "%"}, {"measurement": "specificity calculated using the ROC curves", "setting": "5-hour urine samples", "value": 91.8, "unit": "%"}, {"measurement": "range of recalculated sensitivity, specificity, positive and negative predictive values", "setting": "5-hour urine test, after correcting biopsy diagnosis", "value": "96.94-99.07"}, {"measurement": "false negatives", "setting": "[3]", "value": 0.93, "unit": "%"}, {"measurement": "negative likelihood ratio", "setting": "[3]", "value": 0.010}, {"measurement": "positive likelihood ratio", "setting": "[3]", "value": 32.361}, {"measurement": "Negative predictive value", "setting": "[4]", "value": 98.96, "unit": "%"}, {"measurement": "Positive predictive value", "setting": "[4]", "value": 97.25, "unit": "%"}, {"measurement": "Sensitivity", "setting": "[4]", "value": 99.07, "unit": "%"}, {"measurement": "Specificity", "setting": "[4]", "value": 96.94, "unit": "%"}, {"measurement": "Negative predictive value", "setting": "[5]", "value": 100.00, "unit": "%"}, {"measurement": "Positive predictive value", "setting": "[5]", "value": 98.17, "unit": "%"}, {"measurement": "Sensitivity", "setting": "[5]", "value": 100.00, "unit": "%"}, {"measurement": "Specificity", "setting": "[5]", "value": 97.96, "unit": "%"}, {"measurement": "area under the ROC curve", "setting": "[6]", "value": 0.9315}, {"measurement": "false negatives", "setting": "[6]", "value": 6.5, "unit": "%"}, {"measurement": "false positives", "setting": "[6]", "value": 8.2, "unit": "%"}, {"measurement": "concordant positive results, percentage", "setting": "[7]", "value": 99.1, "unit": "%"}, {"measurement": "final number of concordant positive results", "setting": "[7]", "value": 106}, {"measurement": "negative results (concordant), percentage", "setting": "[7]", "value": 96.9, "unit": "%"}, {"measurement": "number of negative results (concordant)", "setting": "[7]", "value": 95}]}
